Here are results for 15 compounds from US20220104493A1, “HERBICIDAL COMPOUNDS” (SYNGENTA CROP PROTECTION AG, priority 2019, published 2022).

Common to all, as to assay: Post-emergence efficacy, Method A
What all share (assay type): in vivo

One assay deals with Lolium perenne (LOLPE). The conditions noted are these: 500 g/Ha, 100=total damage to plant, 0=no damage, evaluated after 7 and 14 days, read-out: Control of weed species after post-emergence application, LOLPE.
Assay [1] concerns Echinochloa crus-galli (ECHCG). The conditions noted are these: 500 g/Ha, 100=total damage to plant, 0=no damage, evaluated after 7 and 14 days, read-out: Control of weed species after post-emergence application, ECHCG.
Assay [2] has as its system Ipomoea hederacea (IPOHE). The conditions noted are these: 500 g/Ha, 100=total damage to plant, 0=no damage, evaluated after 7 and 14 days, read-out: Control of weed species after post-emergence application, IPOHE.
The test system of assay [3] is Euphorbia heterophylla (EPHHL). The conditions noted are these: 500 g/Ha, 100=total damage to plant, 0=no damage, evaluated after 7 and 14 days, read-out: Control of weed species after post-emergence application, EPHHL.
In the next assay the test system is Eleusine indica (ELEIN). The conditions noted are these: 500 g/Ha, 100=total damage to plant, 0=no damage, evaluated after 7 and 14 days, read-out: Control of weed species after post-emergence application, ELEIN.
For assay [4], the system named is Digitaria sanguinalis (DIGSA). The conditions noted are these: 500 g/Ha, 100=total damage to plant, 0=no damage, evaluated after 7 and 14 days, read-out: Control of weed species after post-emergence application, DIGSA.
The subject of assay [5] is Chenopodium album (CHEAL). The conditions noted are these: 500 g/Ha, 100=total damage to plant, 0=no damage, evaluated after 7 and 14 days, read-out: Control of weed species after post-emergence application, CHEAL.
Another assay deals with Setaria faberi (SETFA). The conditions noted are these: 500 g/Ha, 100=total damage to plant, 0=no damage, evaluated after 7 and 14 days, read-out: Control of weed species after post-emergence application, SETFA.
The subject of assay [6] is Amaranthus palmeri (AMAPA). The conditions noted are these: 500 g/Ha, 100=total damage to plant, 0=no damage, evaluated after 7 and 14 days, read-out: Control of weed species after post-emergence application, AMAPA.

In the case of `O=S(=O)([O-])CCC[n+]1ccc(-c2cnon2)cc1` [Compound A18], the pest or weed control at 500 g/ha in the assay on Lolium perenne (LOLPE) is 10%; in [1], 50%; in assay [2], 20%; in assay [3], 50%; with Eleusine indica (ELEIN) it was 30%; in [4] it was 30%. Besides, the pest or weed control at 500 g/ha amounted to 50% in [5], 40% in the assay on Setaria faberi (SETFA) and 100% in assay [6].
`OCC[n+]1ccc(-c2nnc(-c3ccccc3)o2)cc1` [Compound A69, 2-[4-(5-phenyl-1,3,4-oxadiazol-2-yl)pyridin-1-ium-1-yl]ethanol 2,2,2-trifluoroacetate]: the pest or weed control at 500 g/ha in the assay with Lolium perenne (LOLPE) turned out to be 10%; in assay [1] it was 20%; in assay [2], 20%; in assay [3], 20%; in the assay with Eleusine indica (ELEIN), 30%; in assay [4], 10%. Also, the pest or weed control at 500 g/ha in [5] turned out to be 30%; in the assay on Setaria faberi (SETFA) it was 10%; in [6] it was 20%.
On to `Cn1nnnc1-c1cc[n+](CS(=O)(=O)[O-])cc1` [Compound A57], for which the pest or weed control at 500 g/ha in the assay with Lolium perenne (LOLPE) turned out to be 0%; in assay [1], 60%; in assay [2], 0%; in assay [3], 20%; in the assay with Eleusine indica (ELEIN) it was 20%; in assay [4], 30%. For the same compound, the figures for the pest or weed control at 500 g/ha (in [5]; with Setaria faberi (SETFA); in assay [6]) were 80%, 0% and 100%, respectively.
On to `O=C(O)C[n+]1ccc(-c2ccns2)cc1` [Compound A86], for which the pest or weed control at 500 g/ha in the assay with Lolium perenne (LOLPE) was determined as 0%; in [1], 20%; in assay [2], 10%; in assay [3] it was 40%; in the assay with Eleusine indica (ELEIN) it was 20%; in [4], 10%. Besides, the pest or weed control at 500 g/ha in assay [5] worked out at 10%; in the assay with Setaria faberi (SETFA), 10%; in assay [6], 40%.
`Cn1nccc1-c1cc[n+](CCOS(=O)(=O)[O-])cc1` [Compound A74]: the pest or weed control at 500 g/ha in the assay on Lolium perenne (LOLPE) was found to be 10%; in assay [1] it was 20%; in [2], 10%; in assay [3] it was 20%; in the assay with Eleusine indica (ELEIN) it was 20%; in assay [4], 30%. In addition, the pest or weed control at 500 g/ha in [5] amounted to 40%; in the assay with Setaria faberi (SETFA), 20%; in assay [6], 10%.
Take `Cn1nnc(-c2cc[n+](CCS(=O)(=O)[O-])cc2)n1` [Compound A27]: the pest or weed control at 500 g/ha in the assay with Lolium perenne (LOLPE) amounted to 0%; in assay [1], 0%; in assay [2] it was 10%; in [3], 20%; in the assay with Eleusine indica (ELEIN), 0%; in assay [4] it was 0%. Also, the values for the pest or weed control at 500 g/ha (in assay [5]; in the assay with Setaria faberi (SETFA); in assay [6]) were 10%, 0% and 10%, respectively.
`Nc1nnc(-c2cc[n+](CC(=O)O)cc2)s1` [Compound A94]: the pest or weed control at 500 g/ha in the assay with Lolium perenne (LOLPE) was 10%; in assay [1], 20%; in assay [2], 10%; in assay [3], 30%; in the assay with Eleusine indica (ELEIN) it was 40%; in assay [4] it was 30%. Also, the pest or weed control at 500 g/ha in assay [5] stood at 40%; with Setaria faberi (SETFA) it was 10%; in assay [6] it was 30%.
As to `O=C(O)C[n+]1ccc(-c2nc(C(F)(F)F)cs2)cc1` [Compound A22], the pest or weed control at 500 g/ha in the assay on Lolium perenne (LOLPE) turned out to be 0%; in [2], 0%; in assay [3], 40%; in assay [5], 10%; with Setaria faberi (SETFA) it was 0%; in [6], 10%.
On to `O=C(O)CC[n+]1ccc(-c2ncns2)c(Cl)c1` [Compound A56], for which the pest or weed control at 500 g/ha in the assay with Lolium perenne (LOLPE) was 10%; in [2], 30%; in [3], 100%; in assay [5], 30%; with Setaria faberi (SETFA) it was 30%; in assay [6] it was 60%.
For the compound `Cn1nnc(-c2cc[n+](CS(=O)(=O)[O-])cc2)n1` [Compound A35], the pest or weed control at 500 g/ha was found to be 40% in [1]; 40% in assay [2]; 50% in assay [3]; 20% in the assay with Eleusine indica (ELEIN); 20% in assay [4]; 60% in [5]. Moreover, the pest or weed control at 500 g/ha stood at 30% with Setaria faberi (SETFA) and 70% in assay [6].
With `CC(C(=O)O)[n+]1ccc(-c2ncns2)cc1` (stereo not drawn) [Compound A28], the pest or weed control at 500 g/ha with Lolium perenne (LOLPE) stood at 30%; in [2], 70%; in assay [3], 20%; in assay [5], 80%; in the assay with Setaria faberi (SETFA) it was 80%; in [6], 100%.
Regarding `O=C(O)CC[n+]1ccc(-c2ncns2)c(F)c1` [Compound A55], the pest or weed control at 500 g/ha was determined as 30% in the assay with Lolium perenne (LOLPE); 30% in [2]; 10% in assay [3]; 40% in assay [5]; 20% with Setaria faberi (SETFA); 50% in assay [6].
Take `COC(=O)C[n+]1ccc(-c2cnns2)cc1` [Compound A8, methyl 2-[4-(thiadiazol-5-yl)pyridin-1-ium-1-yl]acetate bromide]: the pest or weed control at 500 g/ha is 0% in the assay on Lolium perenne (LOLPE); 20% in [1]; 10% in [2]; 60% in [3]; 30% in the assay on Eleusine indica (ELEIN); 50% in [4]. For the same compound, the values for the pest or weed control at 500 g/ha (in [5]; in the assay on Setaria faberi (SETFA)) were 70% and 30%, respectively.
`CS(=O)(=O)c1c[n+](CCC(=O)O)ccc1-c1ncns1` [Compound A93, 3-[3-methylsulfonyl-4-(1,2,4-thiadiazol-5-yl)pyridin-1-ium-1-yl]propanoic acid bromide]: the pest or weed control at 500 g/ha with Lolium perenne (LOLPE) was 10%; in assay [1], 40%; in assay [2], 30%; in assay [3], 30%; in the assay on Eleusine indica (ELEIN), 30%; in [5] it was 30%. Also, the pest or weed control at 500 g/ha in the assay with Setaria faberi (SETFA) was found to be 30%; in assay [6], 60%.
Turning to `O=C(O)C[n+]1ccc(-c2cnns2)cc1` [Compound A9, 2-[4-(thiadiazol-5-yl)pyridin-1-ium-1-yl]acetic acid chloride], the pest or weed control at 500 g/ha is 0% with Lolium perenne (LOLPE); 20% in assay [2]; 10% in assay [3]; 0% in assay [5]; 0% in the assay on Setaria faberi (SETFA); 30% in assay [6].
